Assay results published in ChEMBL document CHEMBL1152457, “Antimicrobial drug resistance of Salmonella enterica serovar typhi in asia and molecular mechanism of reduced susceptibility to the fluoroquinolones” (2007).
≈ marks a conversion by molar mass, not a printed value.

Legend:
Type in all cases: functional, Salmonella enterica subsp. enterica serovar Typhi
[1] = system: Salmonella enterica subsp. enterica; experiment: Antimicrobial activity against multidrug-resistant Salmonella enterica Serovar Typhi isolate A102 harboring DNA gyrase A S83Y mutation by disk diffusion method in presence of plasmid mediated quinolone-resistant gene qnrA and qnrS
[2] = system: Salmonella enterica subsp. enterica; experiment: Antimicrobial activity against multidrug-resistant Salmonella enterica Serovar Typhi isolate DT40 harboring DNA gyrase A S83F mutation by disk diffusion method
[3] = system: Salmonella enterica subsp. enterica; experiment: Antimicrobial activity against multidrug-resistant Salmonella enterica Serovar Typhi isolate DT47 harboring DNA gyrase A S83F mutation by disk diffusion method in presence of plasmid mediated quinolone-resistant gene qnrA and qnrS
[4] = system: Salmonella enterica subsp. enterica; experiment: Antimicrobial activity against multidrug-resistant Salmonella enterica Serovar Typhi isolate AG16 harboring DNA gyrase A S83F mutation by disk diffusion method
[5] = system: Salmonella enterica subsp. enterica; experiment: Antimicrobial activity against multidrug-resistant Salmonella enterica Serovar Typhi isolate nar 46 harboring DNA gyrase A D87G mutation by disk diffusion method
[6] = system: Salmonella enterica subsp. enterica; experiment: Antimicrobial activity against multidrug-resistant Salmonella enterica Serovar Typhi isolate nar 104 harboring DNA gyrase A S83F mutation by disk diffusion method in presence of plasmid mediated quinolone-resistant gene qnrA and qnrS
[7] = system: Salmonella enterica subsp. enterica; experiment: Antimicrobial activity against multidrug-resistant Salmonella enterica Serovar Typhi isolate AG168 harboring DNA gyrase A S83F mutation by disk diffusion method
[8] = system: Salmonella enterica subsp. enterica; experiment: Antimicrobial activity against multidrug-resistant Salmonella enterica Serovar Typhi isolate DT2 harboring DNA gyrase A S83F mutation by disk diffusion method in presence of plasmid mediated quinolone-resistant gene qnrA and qnrS
[9] = system: Salmonella enterica subsp. enterica; experiment: Antimicrobial activity against multidrug-resistant Salmonella enterica Serovar Typhi isolate AG8 harboring DNA gyrase A S83F mutation by disk diffusion method
[10] = system: Salmonella enterica subsp. enterica; experiment: Antimicrobial activity against multidrug-resistant Salmonella enterica Serovar Typhi isolate AG152 harboring DNA gyrase A S83F and D87G mutation by disk diffusion method in presence of plasmid mediated quinolone-resistant gene qnrA and qnrS
[11] = system: Salmonella enterica subsp. enterica; experiment: Antimicrobial activity against multidrug-resistant Salmonella enterica Serovar Typhi isolate AG15 harboring DNA gyrase A S83F mutation by disk diffusion method
[12] = system: Salmonella enterica subsp. enterica; experiment: Antimicrobial activity against multidrug-resistant Salmonella enterica Serovar Typhi isolate nar 28 harboring DNA gyrase A S83F mutation by disk diffusion method
[13] = system: Salmonella enterica subsp. enterica; experiment: Antimicrobial activity against multidrug-resistant Salmonella enterica Serovar Typhi isolate DT54 harboring DNA gyrase A S83F mutation by disk diffusion method
[14] = system: Salmonella enterica subsp. enterica; experiment: Antimicrobial activity against multidrug-resistant Salmonella enterica Serovar Typhi isolate ipt 32 harboring DNA gyrase A S83F mutation by disk diffusion method
[15] = system: Salmonella enterica subsp. enterica; experiment: Antimicrobial activity against multidrug-resistant Salmonella enterica Serovar Typhi isolate AG17 harboring DNA gyrase A S83F mutation by disk diffusion method
[16] = system: Salmonella enterica subsp. enterica; experiment: Antimicrobial activity against multidrug-resistant Salmonella enterica Serovar Typhi isolate DT60 harboring DNA gyrase A S83F mutation by disk diffusion method
[17] = system: Salmonella enterica subsp. enterica; experiment: Antimicrobial activity against multidrug-resistant Salmonella enterica Serovar Typhi isolate AG7 harboring DNA gyrase A S83F mutation by disk diffusion method
[18] = system: Salmonella enterica subsp. enterica; experiment: Antimicrobial activity against Salmonella enterica Serovar Typhi isolate E86 harboring DNA gyrase A S83F mutation by disk diffusion method in presence of plasmid mediated quinolone-resistant gene qnrA and qnrS
[19] = system: Salmonella enterica subsp. enterica; experiment: Antimicrobial activity against Salmonella enterica Serovar Typhi isolate C152 harboring DNA gyrase A S83Y mutation by disk diffusion method in presence of plasmid mediated quinolone-resistant gene qnrA and qnrS
[20] = system: Salmonella enterica subsp. enterica; experiment: Antimicrobial activity against multidrug-resistant Salmonella enterica Serovar Typhi isolate DT48 harboring DNA gyrase A S83F mutation by disk diffusion method
[21] = system: Salmonella enterica subsp. enterica; experiment: Antimicrobial activity against multidrug-resistant Salmonella enterica Serovar Typhi isolate DT15 harboring DNA gyrase A S83F mutation by disk diffusion method
[22] = system: Salmonella enterica subsp. enterica; experiment: Antimicrobial activity against multidrug-resistant Salmonella enterica Serovar Typhi isolate BL 21095 harboring DNA gyrase A S83F mutation by disk diffusion method in presence of plasmid mediated quinolone-resistant gene qnrA and qnrS
[23] = system: Salmonella enterica subsp. enterica; experiment: Antimicrobial activity against Salmonella enterica Serovar Typhi isolate ipt 2 harboring DNA gyrase A D87G mutation by disk diffusion method in presence of plasmid mediated quinolone-resistant gene qnrA and qnrS
[24] = system: Salmonella enterica subsp. enterica; experiment: Antimicrobial activity against multidrug-resistant Salmonella enterica Serovar Typhi isolate CT61 harboring DNA gyrase A S83F mutation by disk diffusion method in presence of plasmid mediated quinolone-resistant gene qnrA and qnrS
[25] = system: Salmonella enterica subsp. enterica; experiment: Antimicrobial activity against multidrug-resistant Salmonella enterica Serovar Typhi isolate nar 102 harboring DNA gyrase A S83F mutation by disk diffusion method in presence of plasmid mediated quinolone-resistant gene qnrA and qnrS
[26] = system: Salmonella enterica subsp. enterica; experiment: Antimicrobial activity against multidrug-resistant Salmonella enterica Serovar Typhi isolate DT49 harboring DNA gyrase A S83F mutation by disk diffusion method
[27] = system: Salmonella enterica subsp. enterica; experiment: Antimicrobial activity against multidrug-resistant Salmonella enterica Serovar Typhi isolate DT18 harboring DNA gyrase A S83F and D87G mutation by disk diffusion method
[28] = system: Salmonella enterica subsp. enterica; experiment: Antimicrobial activity against Salmonella enterica Serovar Typhi isolate CT142 harboring DNA gyrase A S83F mutation by disk diffusion method in presence of plasmid mediated quinolone-resistant gene qnrA and qnrS
[29] = system: Salmonella enterica subsp. enterica; experiment: Antimicrobial activity against multidrug-resistant Salmonella enterica Serovar Typhi isolate CT29 harboring DNA gyrase A S83F mutation by disk diffusion method in presence of plasmid mediated quinolone-resistant gene qnrA and qnrS
[30] = system: Salmonella enterica subsp. enterica; experiment: Antimicrobial activity against multidrug-resistant Salmonella enterica Serovar Typhi isolate DT37 harboring DNA gyrase A S83F mutation by disk diffusion method
[31] = system: Salmonella enterica subsp. enterica; experiment: Antimicrobial activity against multidrug-resistant Salmonella enterica Serovar Typhi isolate DT3 harboring DNA gyrase A S83F mutation by disk diffusion method in presence of plasmid mediated quinolone-resistant gene qnrA and qnrS
[32] = system: Salmonella enterica subsp. enterica; experiment: Antimicrobial activity against multidrug-resistant Salmonella enterica Serovar Typhi isolate BL 3769 harboring DNA gyrase A S83F mutation by disk diffusion method in presence of plasmid mediated quinolone-resistant gene qnrA and qnrS
[33] = system: Salmonella enterica subsp. enterica; experiment: Antimicrobial activity against multidrug-resistant Salmonella enterica Serovar Typhi isolate HTD 798 harboring DNA gyrase A S83F mutation by disk diffusion method
[34] = system: Salmonella enterica subsp. enterica; experiment: Antimicrobial activity against Salmonella enterica Serovar Typhi isolate CT145 harboring DNA gyrase A S83F mutation by disk diffusion method in presence of plasmid mediated quinolone-resistant gene qnrA and qnrS
[35] = system: Salmonella enterica subsp. enterica; experiment: Antimicrobial activity against Salmonella enterica Serovar Typhi isolate AG258 harboring DNA gyrase A S83F mutation by disk diffusion method in presence of plasmid mediated quinolone-resistant gene qnrA and qnrS
[36] = system: Salmonella enterica subsp. enterica; experiment: Antimicrobial activity against multidrug-resistant Salmonella enterica Serovar Typhi isolate DT9 harboring DNA gyrase A S83F mutation by disk diffusion method
[37] = system: Salmonella enterica subsp. enterica; experiment: Antimicrobial activity against multidrug-resistant Salmonella enterica Serovar Typhi isolate CT118 harboring DNA gyrase A S83F mutation by disk diffusion method in presence of plasmid mediated quinolone-resistant gene qnrA and qnrS
[38] = system: Salmonella enterica subsp. enterica; experiment: Antimicrobial activity against Salmonella enterica Serovar Typhi isolate BL 21801 harboring DNA gyrase A S83F mutation by disk diffusion method in presence of plasmid mediated quinolone-resistant gene qnrA and qnrS
[39] = system: Salmonella enterica subsp. enterica; experiment: Antimicrobial activity against multidrug-resistant Salmonella enterica Serovar Typhi isolate nar 107 harboring DNA gyrase A S83F mutation by disk diffusion method in presence of plasmid mediated quinolone-resistant gene qnrA and qnrS

| SMILES | MIC [1] | MIC [2] | MIC [3] | MIC [4] | MIC [5] | MIC [6] | MIC [7] | MIC [8] | MIC [9] | MIC [10] | MIC [11] | MIC [12] | MIC [13] | MIC [14] | MIC [15] | MIC [16] | MIC [17] | MIC [18] | MIC [19] | MIC [20] | further results |
| --- | --- | --- | --- | --- | --- | --- | --- | --- | --- | --- | --- | --- | --- | --- | --- | --- | --- | --- | --- | --- | --- |
| CCn1cc(C(=O)O)c(=O)c2ccc(C)nc21 [NALIDIXIC ACID] | > 256 µg/mL | > 256 µg/mL | 128 µg/mL | > 256 µg/mL | 64 µg/mL (≈ 276 µM) | 256 µg/mL | > 256 µg/mL | > 256 µg/mL | > 256 µg/mL | > 256 µg/mL | > 256 µg/mL | 256 µg/mL (≈ 1100 µM) | > 256 µg/mL | 256 µg/mL (≈ 1100 µM) | > 256 µg/mL | > 256 µg/mL | > 256 µg/mL | > 256 µg/mL | > 256 µg/mL | > 256 µg/mL | MIC [21]: > 256 µg/mL; MIC [22]: > 256 µg/mL; MIC [23]: 256 µg/mL; MIC [24]: 256 µg/mL; MIC [25]: 128 µg/mL; MIC [26]: > 256 µg/mL; MIC [27]: > 256 µg/mL; MIC [28]: > 256 µg/mL; MIC [29]: 256 µg/mL; MIC [30]: > 256 µg/mL; MIC [31]: > 256 µg/mL; MIC [32]: > 256 µg/mL; MIC [33]: > 256 µg/mL; MIC [34]: 128 µg/mL; MIC [35]: > 256 µg/mL; MIC [36]: > 256 µg/mL; MIC [37]: > 256 µg/mL; MIC [38]: > 256 µg/mL; MIC [39]: 256 µg/mL |
| CC1COc2c(N3CCN(C)CC3)c(F)cc3c(=O)c(C(=O)O)cn1c23 (stereo not drawn) [OFLOXACIN] | 0.5 µg/mL | 0.5 µg/mL (≈ 1.38 µM) | 1 µg/mL | 1.5 µg/mL (≈ 4.15 µM) | 0.5 µg/mL (≈ 1.38 µM) | 1 µg/mL | 1 µg/mL (≈ 2.77 µM) | 2 µg/mL | 1.5 µg/mL (≈ 4.15 µM) | 3 µg/mL | 1.5 µg/mL (≈ 4.15 µM) | 1 µg/mL (≈ 2.77 µM) | 1 µg/mL (≈ 2.77 µM) | 1 µg/mL (≈ 2.77 µM) | 1.5 µg/mL (≈ 4.15 µM) | 1 µg/mL (≈ 2.77 µM) | 1.5 µg/mL (≈ 4.15 µM) | 0.5 µg/mL | 0.5 µg/mL | 1 µg/mL (≈ 2.77 µM) | MIC [21]: 1 µg/mL (≈ 2.77 µM); MIC [22]: 0.5 µg/mL; MIC [23]: 2 µg/mL; MIC [24]: 1 µg/mL; MIC [25]: 1 µg/mL; MIC [26]: 1 µg/mL (≈ 2.77 µM); MIC [27]: 2 µg/mL (≈ 5.53 µM); MIC [28]: 1 µg/mL; MIC [29]: 1 µg/mL; MIC [30]: 1 µg/mL (≈ 2.77 µM); MIC [31]: 2 µg/mL; MIC [32]: 0.5 µg/mL; MIC [33]: 1 µg/mL (≈ 2.77 µM); MIC [34]: 0.5 µg/mL; MIC [35]: 1.5 µg/mL; MIC [36]: 2 µg/mL (≈ 5.53 µM); MIC [37]: 1 µg/mL; MIC [38]: 0.5 µg/mL; MIC [39]: 1 µg/mL |
